Assay results published in ChEMBL document CHEMBL5543059, “Discovery of anti-inflammatory natural flavonoids: Diverse scaffolds and promising leads for drug discovery” (Eur J Med Chem, 2023).
In brackets after ≈: the same amount, converted by molar mass.

Columns and labels:
[1] = molecular target: T1, Polyunsaturated fatty acid 5-lipoxygenase (Homo sapiens) (UniProt P09917); assay: Inhibition of 5-Lipoxygenase (unknown origin) at 30 uM relative to control
T1 sequence (whole entry): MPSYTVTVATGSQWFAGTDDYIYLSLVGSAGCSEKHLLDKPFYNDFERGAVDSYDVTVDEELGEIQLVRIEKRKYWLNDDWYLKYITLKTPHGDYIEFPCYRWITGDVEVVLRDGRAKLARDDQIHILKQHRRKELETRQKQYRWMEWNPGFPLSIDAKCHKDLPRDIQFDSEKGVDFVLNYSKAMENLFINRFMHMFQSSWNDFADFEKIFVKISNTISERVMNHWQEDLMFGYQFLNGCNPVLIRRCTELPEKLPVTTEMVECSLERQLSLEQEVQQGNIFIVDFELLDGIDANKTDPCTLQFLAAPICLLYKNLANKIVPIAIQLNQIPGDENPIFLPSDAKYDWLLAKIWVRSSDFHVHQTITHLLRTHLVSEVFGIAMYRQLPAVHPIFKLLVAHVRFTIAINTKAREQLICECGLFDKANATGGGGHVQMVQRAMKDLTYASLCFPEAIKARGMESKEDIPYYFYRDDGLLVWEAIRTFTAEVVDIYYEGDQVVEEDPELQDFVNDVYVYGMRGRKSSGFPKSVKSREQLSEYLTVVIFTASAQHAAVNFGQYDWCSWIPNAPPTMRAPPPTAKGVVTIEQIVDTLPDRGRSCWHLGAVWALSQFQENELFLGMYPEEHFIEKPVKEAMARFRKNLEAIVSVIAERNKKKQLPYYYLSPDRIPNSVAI

RAW264.7 [2] = assay: Anti-inflammatory activity in mouse RAW264.7 cells assessed as inhibition of LPS-induced NO production at 20 uM by Griess reagent based analysis relative to control; format: functional; design: scale not given: the % may be the effect or the level left
[3] = Inhibition of TNF-alpha induced NF-kappaB activation in HEK293-A cells incubated for 15 mins by Western blot analysis; format: cell-based; conditions: Homo sapiens, HEK293, 0.25 h
Neutrophil [4] = assay: Inhibition of fMLF/CB-induced human Neutrophil activation assessed as reduction in superoxide anion at 10 uM relative to control; format: functional; design: scale not given: the % may be the effect or the level left
Mus musculus [5] = assay: Anti-inflammatory activity in mouse model of xylene-induced auricle edema assessed as inhibition of ear swelling at 50 mg/kg, IG pre-treated for 1 hr followed by xylene addition and measured after 1 hr relative to control; format: functional; design: scale not given: the % may be the effect or the level left
[6] = molecular target: T2, Inhibitor of nuclear factor kappa-B kinase subunit beta (Homo sapiens) (UniProt O14920); assay: Inhibition of IKKbeta phosphorylation in high glucose-induced HUVEC cells at 0.1 uM relative to control; format: cell-based
T2 sequence (whole entry): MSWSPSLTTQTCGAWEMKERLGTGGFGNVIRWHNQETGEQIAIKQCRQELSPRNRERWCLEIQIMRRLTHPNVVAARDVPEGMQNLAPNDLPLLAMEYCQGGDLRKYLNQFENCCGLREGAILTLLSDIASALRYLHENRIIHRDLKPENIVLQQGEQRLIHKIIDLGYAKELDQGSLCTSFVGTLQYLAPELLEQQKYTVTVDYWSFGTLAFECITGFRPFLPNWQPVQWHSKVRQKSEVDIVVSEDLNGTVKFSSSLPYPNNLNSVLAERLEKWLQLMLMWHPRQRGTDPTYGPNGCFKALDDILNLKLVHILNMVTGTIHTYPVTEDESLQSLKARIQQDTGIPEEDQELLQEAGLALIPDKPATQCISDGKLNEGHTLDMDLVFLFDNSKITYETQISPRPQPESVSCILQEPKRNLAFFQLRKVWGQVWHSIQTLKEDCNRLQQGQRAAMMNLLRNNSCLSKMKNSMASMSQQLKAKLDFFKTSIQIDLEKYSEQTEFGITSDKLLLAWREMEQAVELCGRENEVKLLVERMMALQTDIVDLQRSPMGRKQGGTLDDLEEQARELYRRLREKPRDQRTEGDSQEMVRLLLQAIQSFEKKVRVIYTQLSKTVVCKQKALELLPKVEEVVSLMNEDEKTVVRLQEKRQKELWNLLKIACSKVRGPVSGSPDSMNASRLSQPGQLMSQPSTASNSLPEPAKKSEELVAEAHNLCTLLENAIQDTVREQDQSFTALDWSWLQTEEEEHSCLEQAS

[7] = molecular target: T2, Inhibitor of nuclear factor kappa-B kinase subunit beta (Homo sapiens); assay: Inhibition of IKKbeta phosphorylation in high glucose-induced HUVEC cells at 1 uM relative to control; format: cell-based
[8] = molecular target: T2, Inhibitor of nuclear factor kappa-B kinase subunit beta (Homo sapiens); assay: Inhibition of IKKbeta phosphorylation in high glucose-induced HUVEC cells at 10 uM relative to control; format: cell-based
[9] = test system: Rat aortic endothelial cell; assay: Inhibition of NF-kappaB p65 phosphorylation in high glucose-induced Rat aortic endothelial cell at 0.1 uM relative to control; format: cell-based
[10] = test system: Rat aortic endothelial cell; assay: Inhibition of NF-kappaB p65 phosphorylation in high glucose-induced Rat aortic endothelial cell at 1 uM relative to control; format: cell-based
[11] = test system: Rat aortic endothelial cell; assay: Inhibition of NF-kappaB p65 phosphorylation in high glucose-induced Rat aortic endothelial cell at 10 uM relative to control; format: cell-based
BV-2 [12] = assay: Antineuroinflammatory activity in LPS-induced mouse BV-2 cells assessed as inhibition of NO production pre-incubated for 2 hr followed by LPS-stimulation measured for 24 hrs by Griess reagent based analysis; format: functional, cell-based
Neutrophil [13] = assay: Inhibition of fMLF/CB-induced human Neutrophil activation assessed as reduction in superoxide anion generation pre-incubated for 2 mins prior to CB induction for 3 mins followed by fMLF addition by spectrophotometric analysis; format: functional, cell-based
Neutrophil [14] = assay: Inhibition of fMLF/CB-induced human Neutrophil activation assessed as reduction in elastase release using MeO-Suc-Ala-Ala-Pro-Val-pnitroanilide as substrate pre-incubated for 2 mins followed by fMLF/CB-stimulation and measured for 5 mins; format: functional, cell-based
[15] = Antioxidant activity assessed as DPPH radical scavenging activity measured for 30 mins; format: functional
[16] = Antioxidant activity assessed as ABTS radical scavenging activity incubated for 40 mins; format: functional
Mus musculus [17] = assay: Anti-inflammatory activity in mouse model of xylene-induced auricle edema assessed as inhibition of ear swelling at 200 mg/kg, IG pre-treated for 1 hr followed by xylene addition and measured after 1 hr relative to control; format: functional; design: scale not given: the % may be the effect or the level left
RAW264.7 [18] = assay: Anti-inflammatory activity in LPS-stimulated mouse RAW264.7 cells assessed as inhibition of NO production incubated for 24 hrs by Griess reagent based assay; format: functional, cell-based; conditions: RAW264.7, 24 h
Mus musculus [19] = assay: Antiinflammatory activity against TPA-induced mouse ear edema model assessed as reduction in NO production measured after 4 hrs; format: functional, organism-based
BV-2 [20] = assay: Antineuroinflammatory activity in LPS-induced mouse BV-2 cells assessed as inhibition of iNOS production at 50 uM pre-incubated for 2 hr followed by LPS-stimulation measured for 24 hrs by Western blot analysis; format: functional; design: scale not given: the % may be the effect or the level left; conditions: time 26 hrs
BV-2 [21] = assay: Anti-inflammatory activity in mouse BV-2 cells assessed as reduction in LPS-induced NO production; format: functional, cell-based
THP-1 = assay: Anti-inflammatory activity in human THP-1 cells assessed as inhibition of LPS-stimulated NO production by ELISA analysis; format: functional, cell-based
RAW264.7 [22] = assay: Anti-inflammatory activity in mouse RAW264.7 cells assessed as reduction in LPS-induced NO production by ELISA analysis; format: functional, cell-based
Peritoneal macrophage = assay: Anti-inflammatory activity against LPS-stimulated mouse peritoneal macrophage assessed as reduction in nitric oxide production; format: functional, cell-based
BV-2 [23] = assay: Anti-inflammatory activity in mouse BV-2 cells assessed as reduction in LPS-induced NO production pretreated for 1 hr followed by LPS-stimulation and measured after 18 hrs by 2,3-diaminonaphthalene reagent based fluorescence analysis; format: functional, cell-based

In the case of COc1cc2oc(-c3ccc(O)c(O)c3)cc(=O)c2c(O)c1OC [CIRSILIOL], the inhibition [1] is reported as 48.5% and the Activity (RAW264.7 [2]) is reported as 54%.

Work on COc1c(O)cc2oc(-c3ccccc3)cc(=O)c2c1O [OROXYLIN A] yielded an IC50 [3] of 3.9 µM.

Work on COc1cc(O)c2c(=O)c(-c3ccc(O)c(OC)c3)coc2c1 yielded an Activity (Neutrophil [4]) of 49%.

With COc1ccc(-c2cc(=O)c3c(OC)c(OC)c(OC)cc3o2)cc1 the Activity (Mus musculus [5]) was 42.8%.

Compound COc1c(O)cc2oc(-c3ccc(O)cc3)cc(=O)c2c1O has an inhibition [6] of 23.2%, an inhibition [7] of 53.6% and an inhibition [8] of 88.4%. It also gave an inhibition [9] of 26.1%, an inhibition [10] of 57.4% and an inhibition [11] of 93.2%.

CC(C)(O)CCc1c(O)ccc(C(=O)/C=C/c2ccc3c(c2)C[C@@H](C(C)(C)O)O3)c1O showed an IC50 (BV-2 [12]) of 3.25 µM.

COc1cc(O)c2c(=O)cc(-c3ccc(O)c(OC)c3)oc2c1 [VELUTIN] showed an IC50 (Neutrophil [13]) of at most 12.5 µM and an IC50 (Neutrophil [14]) of at most 15.2 µM.

CC(C)(O)[C@@H]1Cc2cc(/C=C/C(=O)c3ccc4c(c3O)C[C@H](C(C)(C)O)O4)ccc2O1 gave an IC50 (BV-2 [12]) of 12.4 µM.

In the case of O=C1O[C@H]([C@@H](O)CO)C(O)=C1O [ASCORBIC ACID], the IC50 [15] is reported as 2.1 µM and the IC50 [16] is reported as 3.3 µM.

In the case of CC(=O)Oc1ccccc1C(=O)O [ASPIRIN], the Activity (Mus musculus [17]) is reported as 41.07%.

For COc1c(O)ccc2c(=O)cc(-c3ccc(O)c(O)c3)oc12, the IC50 (RAW264.7 [18]) was 27.7 µM, the IC50 [15] was 5 µM and the IC50 [16] was 7.9 µM.

Work on C=C(C)[C@H](O)CC/C(C)=C/Cc1c(O)cc2oc(-c3ccc(O)cc3)cc(=O)c2c1O yielded an IC50 (Mus musculus [19]) of 3.5 µg/mL (≈ 8.28 µM).

Compound COc1ccc(-c2cc(=O)c3c(OC)c(OC)c(OC)c(OC)c3o2)cc1OC [NOBILETIN] has an Activity (BV-2 [20]) of 71.2%.

Work on COc1ccc2c(c1)c(CC(=O)O)c(C)n2C(=O)c1ccc(Cl)cc1 [INDOMETHACIN] yielded an IC50 (RAW264.7 [18]) of 8.5 µM, an IC50 (BV-2 [21]) of 15.2 µM and an IC50 (THP-1) of 19.4 µM. It also gave an IC50 (RAW264.7 [22]) of 17.6 µM, an IC50 (Peritoneal macrophage) of 148 µM and an IC50 (BV-2 [23]) of 55.4 µM.
